Holding throughout (format): cell-based
Assay [1] deals with Melanocyte-stimulating hormone receptor (Mus musculus, UniProt Q01727). Nature of the assay: Activity in mouse melanocortin-1 receptor stably expressed in HEK293 cells.
A further assay addresses Melanocortin receptor 5 (Mus musculus, UniProt P41149). The assay is described as follows: Activity in mouse melanocortin-5 receptor stably expressed in HEK293 cells.
The target of the next assay is Melanocortin receptor 4 (Mus musculus, UniProt P56450). The assay is described as follows: Activity in mouse melanocortin-4 receptor stably expressed in HEK293 cells.
The next assay addresses Melanocortin receptor 3 (Mus musculus, UniProt P33033). The assay is described as follows: Activity in mouse melanocortin-3 receptor (mMC3R) stably expressed in HEK293 cells.

Sequence of Melanocortin receptor 5 (P41149 whole entry): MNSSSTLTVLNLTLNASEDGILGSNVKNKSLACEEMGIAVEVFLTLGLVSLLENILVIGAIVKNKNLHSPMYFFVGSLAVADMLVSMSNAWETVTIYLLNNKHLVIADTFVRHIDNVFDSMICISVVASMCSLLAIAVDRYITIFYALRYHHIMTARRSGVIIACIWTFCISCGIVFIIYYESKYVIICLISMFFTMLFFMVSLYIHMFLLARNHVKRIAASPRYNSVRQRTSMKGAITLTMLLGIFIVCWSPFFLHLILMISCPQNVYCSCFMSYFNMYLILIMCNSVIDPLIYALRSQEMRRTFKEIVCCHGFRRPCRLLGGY
Sequence of Melanocyte-stimulating hormone receptor (Q01727 whole entry): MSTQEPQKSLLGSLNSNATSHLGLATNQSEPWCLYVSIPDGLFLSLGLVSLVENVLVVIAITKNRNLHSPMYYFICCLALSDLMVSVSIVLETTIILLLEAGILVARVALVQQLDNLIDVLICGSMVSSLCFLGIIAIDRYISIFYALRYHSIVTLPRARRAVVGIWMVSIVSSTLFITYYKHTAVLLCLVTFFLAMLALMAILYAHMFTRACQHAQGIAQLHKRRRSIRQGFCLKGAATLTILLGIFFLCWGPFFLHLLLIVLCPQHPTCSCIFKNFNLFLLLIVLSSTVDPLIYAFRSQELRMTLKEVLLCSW
Sequence of Melanocortin receptor 3 (P33033 whole entry): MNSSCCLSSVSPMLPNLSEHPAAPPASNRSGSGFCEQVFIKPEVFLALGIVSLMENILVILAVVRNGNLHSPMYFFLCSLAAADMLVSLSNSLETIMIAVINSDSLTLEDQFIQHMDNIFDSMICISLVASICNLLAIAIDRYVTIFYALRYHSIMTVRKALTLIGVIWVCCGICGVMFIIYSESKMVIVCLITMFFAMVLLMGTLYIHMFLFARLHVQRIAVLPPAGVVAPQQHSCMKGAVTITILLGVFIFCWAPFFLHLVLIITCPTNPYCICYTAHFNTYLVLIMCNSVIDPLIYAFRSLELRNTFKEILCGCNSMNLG
Sequence of Melanocortin receptor 4 (P56450 whole entry): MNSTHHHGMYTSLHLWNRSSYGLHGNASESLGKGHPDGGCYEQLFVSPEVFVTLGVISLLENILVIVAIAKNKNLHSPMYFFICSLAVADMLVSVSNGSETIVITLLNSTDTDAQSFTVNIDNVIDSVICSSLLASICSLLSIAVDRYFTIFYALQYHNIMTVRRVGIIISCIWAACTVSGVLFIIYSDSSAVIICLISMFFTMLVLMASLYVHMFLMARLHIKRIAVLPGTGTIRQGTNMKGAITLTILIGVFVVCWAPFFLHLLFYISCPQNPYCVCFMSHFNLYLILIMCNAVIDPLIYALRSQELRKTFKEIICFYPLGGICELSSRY

As usually defined, the EC50 is the concentration giving half of the maximal effect. A low value points to greater potency. Turning to `CC(=O)N[C@@H](Cc1c[nH]cn1)C(=O)N[C@H](Cc1ccccc1)C(=O)N[C@@H](CCCN=C(N)N)C(=O)N[C@H](C(N)=O)C(c1ccccc1)c1ccccc1`, the half-maximal effective concentration (EC50) came out at 2300 nM in assay [1], 7100 nM at Melanocortin receptor 5 and 11600 nM at Melanocortin receptor 4.

As to `CC(=O)N[C@@H](Cc1c[nH]cn1)C(=O)N[C@@H](Cc1ccccc1)C(=O)N[C@@H](CCCN=C(N)N)C(=O)N[C@@H](C(N)=O)C(c1ccccc1)c1ccccc1`, the EC50 on Melanocortin receptor 3 amounted to 53300 nM.

On to `CC(=O)N[C@@H](Cc1c[nH]cn1)C(=O)N[C@H](Cc1ccccc1)C(=O)N[C@@H](CCCN=C(N)N)C(=O)N[C@@H](Cc1ccccc1)C(N)=O`, for which the EC50 in assay [1] was found to be 530 nM; on Melanocortin receptor 5 it was 890 nM; at Melanocortin receptor 4, 7800 nM.

Take `CC(=O)N[C@@H](Cc1c[nH]cn1)C(=O)N[C@@H](Cc1ccccc1)C(=O)N[C@@H](CCCN=C(N)N)C(=O)N[C@H](Cc1ccccc1)C(N)=O`: at Melanocortin receptor 3, the midpoint of the response, the EC50, lay at 27000 nM.

Regarding `CC(=O)N[C@@H](Cc1cnc[nH]1)C(=O)N[C@H](Cc1ccccc1)C(=O)N[C@@H](CCCN=C(N)N)C(=O)N1Cc2ccccc2C[C@H]1C(N)=O`, the EC50 in assay [1] amounted to 43 nM; at Melanocortin receptor 5, 700 nM; on Melanocortin receptor 3, 23200 nM; at Melanocortin receptor 4, 8500 nM.

As to `CC(=O)N[C@@H](Cc1cnc[nH]1)C(=O)N[C@H](Cc1ccccc1)C(=O)N[C@@H](CCCN=C(N)N)C(=O)N1Cc2ccccc2C[C@@H]1C(N)=O`, the EC50 was 1500 nM in assay [1], 24800 nM on Melanocortin receptor 5, > 100000 nM at Melanocortin receptor 3 and 39400 nM at Melanocortin receptor 4.

For the compound `CC(=O)N[C@@H](Cc1c[nH]cn1)C(=O)N[C@H](Cc1ccccc1)C(=O)N[C@@H](CCCN=C(N)N)C(=O)N[C@@H](C)C(N)=O`, the EC50 in assay [1] was 4400 nM; at Melanocortin receptor 5, 38400 nM; on Melanocortin receptor 3, > 100000 nM; at Melanocortin receptor 4, 43700 nM.

Consider `CC(=O)N[C@@H](Cc1cnc[nH]1)C(=O)NC(Cc1ccccc1)C(=O)N[C@@H](CCCNC(=N)N)C(=O)N[C@H](Cc1csc2ccccc12)C(N)=O` (stereo in doubt) [listing 1 of 2 here], for which the results for the EC50 (in assay [1]; on Melanocortin receptor 5; on Melanocortin receptor 4) were 79.9 nM, 47.7 nM and 143 nM, respectively.

Compound `CC(=O)N[C@@H](Cc1cnc[nH]1)C(=O)NC(Cc1ccccc1)C(=O)N[C@@H](CCCNC(=N)N)C(=O)N[C@H](Cc1csc2ccccc12)C(N)=O` (stereo in doubt) [listing 2 of 2 here] yielded an EC50 on Melanocortin receptor 3 of 3700 nM.

On to `CC(=O)N[C@@H](Cc1cnc[nH]1)C(=O)NC(Cc1ccccc1)C(=O)N[C@@H](CCCNC(=N)N)C(=O)NC(Cc1c[nH]c2ccccc12)C(N)=O` (stereo in doubt), for which the values for the EC50 at Melanocortin receptor 5 (hek293) and on Melanocortin receptor 4 (hek293) were 3.96 nM and 17.2 nM, respectively.

As to `CC(=O)N[C@@H](Cc1cnc[nH]1)C(=O)NC(Cc1ccccc1)C(=O)N[C@@H](CCCNC(=N)N)C(=O)N[C@H](Cc1cccc2ccccc12)C(N)=O` (stereo in doubt) [listing 1 of 2 here], the EC50 was 730 nM in assay [1], 33.1 nM on Melanocortin receptor 5 and 260 nM on Melanocortin receptor 4.

At Melanocortin receptor 3, `CC(=O)N[C@@H](Cc1cnc[nH]1)C(=O)NC(Cc1ccccc1)C(=O)N[C@@H](CCCNC(=N)N)C(=O)N[C@H](Cc1cccc2ccccc12)C(N)=O` (stereo in doubt) [listing 2 of 2 here] returned an EC50 of 3500 nM.

As for `CC(=O)N[C@@H](Cc1c[nH]cn1)C(=O)NC(Cc1ccccc1)C(=O)N[C@@H](CCCN=C(N)N)C(=O)NC(Cc1ccccc1)C(N)=O` (stereo in doubt) [listing 1 of 2 here], the results for the EC50 (in assay [1]; on Melanocortin receptor 5; on Melanocortin receptor 4) were 2500 nM, 470 nM and 1000 nM, respectively.

In the case of `CC(=O)N[C@@H](Cc1c[nH]cn1)C(=O)NC(Cc1ccccc1)C(=O)N[C@@H](CCCN=C(N)N)C(=O)NC(Cc1ccccc1)C(N)=O` (stereo in doubt) [listing 2 of 2 here], a half-maximal effect at Melanocortin receptor 3 (EC50) was put at 15000 nM.

For the compound `CC(=O)N[C@@H](Cc1cnc[nH]1)C(=O)N[C@H](Cc1ccccc1)C(=O)N[C@@H](CCCN=C(N)N)C(=O)NC(Cc1c[nH]c2ccccc12)C(N)=O` (stereo in doubt), the EC50 at Melanocortin receptor 5 was 35.3 nM; at Melanocortin receptor 4, 240 nM.

On to `CC(=O)N[C@@H](Cc1cnc[nH]1)C(=O)NC(Cc1ccccc1)C(=O)N[C@@H](CCCNC(=N)N)C(=O)N[C@@H](Cc1cccc2ccccc12)C(N)=O` (stereo in doubt) [listing 1 of 2 here], for which the figures for the EC50 (in assay [1]; at Melanocortin receptor 5; on Melanocortin receptor 4) were 750 nM, 750 nM and 5400 nM, respectively.

Regarding `CC(=O)N[C@@H](Cc1cnc[nH]1)C(=O)NC(Cc1ccccc1)C(=O)N[C@@H](CCCNC(=N)N)C(=O)N[C@@H](Cc1cccc2ccccc12)C(N)=O` (stereo in doubt) [listing 2 of 2 here], on Melanocortin receptor 3, the 50% effective concentration (EC50) came to 21900 nM.

On to `CC(=O)N[C@@H](Cc1c[nH]cn1)C(=O)NC(Cc1ccccc1)C(=O)N[C@@H](CCCN=C(N)N)C(=O)NC(Cc1ccc2ccccc2c1)C(N)=O` (stereo in doubt) [listing 1 of 2 here], for which the EC50 in assay [1] was 127 nM; on Melanocortin receptor 5, 12.1 nM; on Melanocortin receptor 4, 46.2 nM.

Compound `CC(=O)N[C@@H](Cc1c[nH]cn1)C(=O)NC(Cc1ccccc1)C(=O)N[C@@H](CCCN=C(N)N)C(=O)NC(Cc1ccc2ccccc2c1)C(N)=O` (stereo in doubt) [listing 2 of 2 here] gave a concentration for a half-maximal effect (EC50) on Melanocortin receptor 3 of 1620 nM.

With `CC(=O)N[C@@H](Cc1c[nH]cn1)C(=O)NC(Cc1ccccc1)C(=O)N[C@@H](CCCN=C(N)N)C(=O)N[C@H](Cc1ccc(-c2ccccc2)cc1)C(N)=O` (stereo in doubt) [listing 1 of 2 here], the half-maximal effective concentration (EC50) in assay [1] is 51.9 nM; on Melanocortin receptor 5, 100 nM; on Melanocortin receptor 4 it was 2700 nM.

For `CC(=O)N[C@@H](Cc1c[nH]cn1)C(=O)NC(Cc1ccccc1)C(=O)N[C@@H](CCCN=C(N)N)C(=O)N[C@H](Cc1ccc(-c2ccccc2)cc1)C(N)=O` (stereo in doubt) [listing 2 of 2 here], a half-maximal response on Melanocortin receptor 3 (EC50) required 13400 nM.

With `CC(=O)N[C@@H](Cc1cnc[nH]1)C(=O)NC(Cc1ccccc1)C(=O)N[C@@H](CCCNC(=N)N)C(=O)N[C@@H](Cc1ccc(-c2ccccc2)cc1)C(N)=O` (stereo in doubt) [listing 1 of 2 here], the concentration for a half-maximal effect (EC50) came to 310 nM in assay [1], 150 nM at Melanocortin receptor 5 and 1500 nM on Melanocortin receptor 4.

As for `CC(=O)N[C@@H](Cc1cnc[nH]1)C(=O)NC(Cc1ccccc1)C(=O)N[C@@H](CCCNC(=N)N)C(=O)N[C@@H](Cc1ccc(-c2ccccc2)cc1)C(N)=O` (stereo in doubt) [listing 2 of 2 here], on Melanocortin receptor 3, the half-maximal effective concentration (EC50) amounted to 16200 nM.

`CC(=O)N[C@@H](Cc1cnc[nH]1)C(=O)NC(Cc1ccccc1)C(=O)N[C@@H](CCCNC(=N)N)C(=O)N[C@H](Cc1cccs1)C(N)=O` (stereo in doubt) [listing 1 of 2 here]: the figures for the concentration giving a half-maximal response (EC50) (in assay [1]; at Melanocortin receptor 5; on Melanocortin receptor 4) were 2780 nM, 850 nM and 8120 nM, respectively.

`CC(=O)N[C@@H](Cc1cnc[nH]1)C(=O)NC(Cc1ccccc1)C(=O)N[C@@H](CCCNC(=N)N)C(=O)N[C@H](Cc1cccs1)C(N)=O` (stereo in doubt) [listing 2 of 2 here]: on Melanocortin receptor 3, the EC50 came out at 30200 nM.

Consider `CC(=O)N[C@@H](Cc1cnc[nH]1)C(=O)NC(Cc1ccccc1)C(=O)N[C@@H](CCCNC(=N)N)C(=O)N[C@H](Cc1cnc[nH]1)C(N)=O` (stereo in doubt) [listing 1 of 2 here], for which the concentration giving a half-maximal response (EC50) stood at 3800 nM in assay [1], 36000 nM at Melanocortin receptor 5 and 27600 nM at Melanocortin receptor 4.

Consider `CC(=O)N[C@@H](Cc1cnc[nH]1)C(=O)NC(Cc1ccccc1)C(=O)N[C@@H](CCCNC(=N)N)C(=O)N[C@H](Cc1cnc[nH]1)C(N)=O` (stereo in doubt) [listing 2 of 2 here], for which, on Melanocortin receptor 3, the EC50 is > 100000 nM.

On to `CC(=O)N[C@@H](Cc1c[nH]cn1)C(=O)NC(Cc1ccccc1)C(=O)N[C@@H](CCCN=C(N)N)C(=O)N[C@H](Cc1ccc2ccccc2c1)C(N)=O` (stereo in doubt) [listing 1 of 2 here], for which the results for the concentration for a half-maximal effect (EC50) (in assay [1]; on Melanocortin receptor 5; on Melanocortin receptor 4) were 17.9 nM, 4.86 nM and 15.8 nM, respectively.

On to `CC(=O)N[C@@H](Cc1c[nH]cn1)C(=O)NC(Cc1ccccc1)C(=O)N[C@@H](CCCN=C(N)N)C(=O)N[C@H](Cc1ccc2ccccc2c1)C(N)=O` (stereo in doubt) [listing 2 of 2 here], for which, at Melanocortin receptor 3, it took 740 nM to reach a half-maximal effect (EC50).

`CC(=O)N[C@@H](Cc1cnc[nH]1)C(=O)NC(Cc1ccccc1)C(=O)N[C@@H](CCCNC(=N)N)C(=O)NC(C(N)=O)C(c1ccccc1)c1ccccc1` (stereo in doubt) [listing 1 of 2 here]: the EC50 in assay [1] came to 680 nM; on Melanocortin receptor 5 it was 7440 nM; at Melanocortin receptor 4, 7800 nM.

Regarding `CC(=O)N[C@@H](Cc1cnc[nH]1)C(=O)NC(Cc1ccccc1)C(=O)N[C@@H](CCCNC(=N)N)C(=O)NC(C(N)=O)C(c1ccccc1)c1ccccc1` (stereo in doubt) [listing 2 of 2 here], the response on Melanocortin receptor 3 was half-maximal at 16000 nM (EC50).

In the case of `CC(=O)N[C@@H](Cc1cnc[nH]1)C(=O)NC(Cc1ccccc1)C(=O)N[C@@H](CCCNC(=N)N)C(=O)N[C@H](Cc1ccncc1)C(N)=O` (stereo in doubt) [listing 1 of 2 here], the EC50 came out at 2240 nM in assay [1], 14500 nM on Melanocortin receptor 5 and 30000 nM on Melanocortin receptor 4.

As for `CC(=O)N[C@@H](Cc1cnc[nH]1)C(=O)NC(Cc1ccccc1)C(=O)N[C@@H](CCCNC(=N)N)C(=O)N[C@H](Cc1ccncc1)C(N)=O` (stereo in doubt) [listing 2 of 2 here], the EC50 on Melanocortin receptor 3 was > 100000 nM.

As to `CC(=O)N[C@@H](Cc1c[nH]cn1)C(=O)N[C@H](Cc1ccccc1)C(=O)N[C@@H](CCCN=C(N)N)C(=O)N[C@@]1(C(N)=O)CCc2ccccc2C1` (stereo in doubt; 20), the concentration giving a half-maximal response (EC50) is 700 nM in assay [1], 180 nM on Melanocortin receptor 5, 9900 nM at Melanocortin receptor 3 and 3460 nM at Melanocortin receptor 4.

For `CC(=O)N[C@@H](Cc1c[nH]cn1)C(=O)N[C@H](Cc1ccccc1)C(=O)N[C@@H](CCCN=C(N)N)C(=O)N[C@@]1(C(N)=O)CCc2ccccc2C1` (stereo in doubt; 21), the 50% effective concentration (EC50) in assay [1] worked out at 680 nM; at Melanocortin receptor 5, 960 nM; on Melanocortin receptor 3 it was 33500 nM; at Melanocortin receptor 4, 8800 nM.

The record behind these values is ChEMBL document CHEMBL1135692, “Structure-activity relationships of the melanocortin tetrapeptide Ac-His-D-Phe-Arg-Trp-NH2 at the mouse melanocortin receptors. 4. Modifications at the Trp position” (J Med Chem, 2002).
